Measured values published in ChEMBL document CHEMBL1146652, “Synthesis and CB1 receptor activities of novel arachidonyl alcohol derivatives” (Bioorg Med Chem Lett, 2004).

Experiments:
[1] = biological target: Cannabinoid receptor 1 (Rattus norvegicus) (UniProt P20272); assay: Maximal response of cannabinoid receptor to compound was evaluated using [35S]GTP-gamma-S-binding studies; format: functional
Cannabinoid receptor 1 = Cannabinoid receptor 1 (Rattus norvegicus, UniProt P20272); assay: Cannabinoid receptor 1 dependent activity of compound was evaluated by using [35S]GTP-gamma-S-binding studies; format: functional
Chain of Cannabinoid receptor 1 (P20272 whole entry): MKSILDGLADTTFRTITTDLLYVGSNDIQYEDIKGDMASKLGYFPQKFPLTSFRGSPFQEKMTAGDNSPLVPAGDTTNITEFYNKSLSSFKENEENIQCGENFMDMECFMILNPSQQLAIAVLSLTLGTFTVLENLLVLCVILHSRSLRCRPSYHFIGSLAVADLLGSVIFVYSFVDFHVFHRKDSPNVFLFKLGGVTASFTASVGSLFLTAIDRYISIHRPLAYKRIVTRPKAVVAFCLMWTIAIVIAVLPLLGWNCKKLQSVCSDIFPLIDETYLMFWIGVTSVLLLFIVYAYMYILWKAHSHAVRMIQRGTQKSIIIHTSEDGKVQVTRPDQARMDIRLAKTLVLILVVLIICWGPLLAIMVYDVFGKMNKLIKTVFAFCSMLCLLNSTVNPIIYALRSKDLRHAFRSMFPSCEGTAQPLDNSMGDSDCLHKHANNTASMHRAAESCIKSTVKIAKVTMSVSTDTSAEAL

Chain of Cannabinoid receptor 1 (Rattus norvegicus) (P20272 whole entry): as above

CCCCC/C=C\C/C=C\C/C=C\C/C=C\CCCC(=O)NCCO
Emax [1]: 380%

CCCCC/C=C\C/C=C\C/C=C\C/C=C\CCCCOC(=O)[C@@H](O)CO
Emax [1]: 278%
EC50 (Cannabinoid receptor 1): 39.8 µM

CCCCC/C=C\C/C=C\C/C=C\C/C=C\CCCCOC(=O)[C@H](O)CO
Emax [1]: 301%
EC50 (Cannabinoid receptor 1): 25.1 µM
